Results reported in US20090117089A1, “GLYCOLIPIDS AND ANALOGUES THEREOF AS ANTIGENS FOR NK T CELLS” (The Rockefeller University, priority 2005, published 2009).
“Also recorded” adds a separate entry of the source.

Legend:
[1] = test system: serum IFN-γ, IL-12p70 and other cytokines; assay: Serum cytokines (Luminex); assay type: in vivo, mouse; settings: for serum IFNγ: 15 hours; for serum IFN-γ, IL-12p70, IL-4, TNF-α and IL-2 response: 2, 6, 12 and 24 h; for serum IFN-γ and IL12p70 release in Jα281−/− mice: i.v. injection
Procedure: Serum cytokines. […] 25 μl of sample was preincubated with serum diluent and incubated for 2 h with Beadmates coated with anti-cytokine mAbs. The fluid was then aspirated and the wells incubated for 1.5 h with biotin-conjugated anti-cytokine mAbs followed by 30 min incubation with Beadlyte streptavidin-PE secondary antibody. Samples were acquired in duplicate by Luminex and analyzed using Beadview software (Upstate).

[2] = test system: human NKT cells (Vα24/Vβ11); assay: Human dendritic cell mediated NKT cell expansion; assay type: cell-based; settings: DCs loaded with glycolipid; data not shown
[3] = test system: allogeneic C57B1/6 or syngeneic T cells; assay: Stimulation of the mixed leukocyte reaction (MLR) by DCs; assay type: cell-based, mouse
Procedure: Stimulation of the mixed leukocyte reaction (MLR) by DCs. Spleen DCs were isolated using anti-CD11c magnetic beads 8 h after administration of αGalCer, 24, or PBS. Graded numbers of spleen DCs from BALB/C mice were irradiated and cultured with 2×10^5 allogeneic C57B1/6 or syngeneic T cells, isolated using anti-CD4 coated magnetic beads (Miltenyi Biotech), in a 96-well flat-bottom plate for 88 h. During the final 16 h, ^3H-thymidine (1 μCi/well) was added.

[4] = test system: spleen CD11c+ cells (DCs and NK cells); assay: Cytokine production by DCs after in vivo glycolipid; set-up: species or system mouse; settings: for IL-12p40, IL-6 and TNF-α from DCs of primed mice: cultured in the presence of αCD40, ELISA and Luminex, data not shown
Procedure: Cytokine production by DCs. After mice were given αGalCer or Compound 24 i.v., CD11c+ cells were isolated with anti-CD11c magnetic beads and cultured 4 h in the presence of Golgistop (from Cytofix/CytoPerm Plus kit; BD Biosciences). Cells were then stained for surface markers (CD11c and DX-5), permeabilized in 100 μl Cytofix/Cytoperm solution using manufacturer's instructions and stained for intracellular cytokines (IFN-γ and IL-12).

[5] = test system: human NKT cells (Vα24/Vβ11); assay: Human dendritic cell mediated NKT cell expansion; assay type: cell-based; set-up: NKT cell expansion (Table 1): unit not given here; settings: for NKT cell expansion by loaded human DCs: DC to responder ratio 1:10
Description: Human dendritic cell mediated NKT cell expansion. CD14+ monocytes were isolated from PBMC using anti-CD14 magnetic microbeads and cultured in the presence of GM-CSF and IL-4 to generate DCs, followed at day 5-6, by maturation in an inflammatory cytokine cocktail as described herein. To stimulate NKT cells, DCs were pulsed with α-GalCer and the tested analogs, and cultured with CD14− cells at a DC: responder ratio of 1:10. NKT cell expansion was monitored by flow cytometry based on the expression of the invariant NKT cell receptor (Vα24/Vβ11).

[6] = test system: J558 tumor cells; assay: Tumor protection assay, J558 plasmacytoma; assay type: in vivo, mouse; settings: for protection from J558 tumor challenge / tumor growth after single agent alone: challenge 14 days later; for tumor growth after single agent alone: glycolipid alone (2 or 0.2 μg/mouse) or irradiated cells alone; for protective immunity to irradiated tumor injected i.v. (adjuvant comparison): vs αCD40 and poly IC
Procedure: 2×10^7 irradiated J558-Ld^− cells, were injected i.v. or s.c. into Balb/c mice with or without α-Gal Cer as a DC maturation stimulus. In some experiments we compared α-Gal Cer to agonistic anti-CD40 mAb (1C10, 25 μg i.p.) or the toll like receptor ligands, poly IC ([…], Invivogen) or lipopolysaccharide (20 μgm, Sigma). The mice had been given CFSE-labeled PICTL CD8^+ T cells i.v. 1 d earlier, or were naive animals. In some experiments, mice were sacrificed 3 d later, and T cell division and activation in spleen were analyzed by flow cytometry. Additionally, 7 d or 2 months later, 5×10^6 live J558 tumor cells were inoculated subcutaneously. 5×10^6 Meth A fibrosarcoma was used as a control tumor for challenge. Tumor cell growth was measured with calipers every other day. Mice were scored positive for tumor as soon as tumors became palpable and grew progressively. Mice were euthanized when tumor size exceeded 400 mm^2.
Mice vaccinated with J558 and α-Gal Cer were injected with ascites containing 1 mg of rat monoclonal anti-CD4 (clone GK 1.5) or anti-CD8 (clone 53-6.72). The mice received three daily injections, the first one i.v. one day before the challenge, and two i.p. injections on the day of the challenge and one day after the challenge. Control mice received 1 mg of Rat IgG (Jackson Laboratories). The depletion was monitored by staining with anti-CD4 and anti-CD8 antibodies followed by flow cytometry (BD PharMingen).
In vivo delivery of dying tumor cells, DC maturation stimuli, and tumor protection assay. Different doses of irradiated J558-Ld− cells were injected i.v. into naïve BALB/c mice either alone or with αGalCer (2 or 0.2 μg/mouse) or 24 (2 or 0.2 μg/mouse) as a DC maturation stimulus. We also compared the glycolipids to agonistic anti-CD40 mAb (1C10, 25 μg, i.p.) or the Toll-like receptor ligands, poly IC (50 μg i.p., Invivogen). 14 d later, 5×10^6 live J558 tumor cells were inoculated s.c. Tumor cell growth was measured with calipers every other day. Mice were scored positive for tumor, as soon as tumors became palpable and grew progressively. Mice were euthanized when tumor size exceeded 400 mm^2.

[7] = 2 μg or 0.2 μg, 2, 6, 12 h in vivo, intracellular staining
[8] = 0.2 μg/mouse with 1×10^7 irradiated J558Ld− tumor cells i.v.
[9] = 2 μg/mouse with 1×10^7 irradiated J558Ld− tumor cells i.v.

Molecule	serum IL-12p70 ([1]; 0.02 μg, 15 h) [pg/mL]	serum IFNγ ([1]; 0.02 μg) [pg/mL]	serum IFN-γ, IL-12p70, IL-4, TNF-α and IL-2 response ([1]; 2 μg i.v.)	serum IL-12p70 ([1]; 2 μg i.v., by 6 h) [pg/mL]	serum IFN-γ ([1]; 2 μg i.v., by 12 h) [pg/mL]	serum IL-12p70 ([1]; 2 μg i.v., by 12 h) [pg/mL]	serum IFN-γ and IL12p70 release in Jα281−/− mice [1]	production of IFNγ, IL-13 and IL-2 by NKT cells [2]	stimulation of allogeneic T cells (allo-MLR) by DCs from treated mice [3]	stimulation of syngeneic T cells (syn-MLR) by DCs from treated mice [3]	IL-12p40, IL-6 and TNF-α from DCs of primed mice [4]	NKT cell expansion by loaded human DCs [5]	NKT cell expansion (Table 1) ([5]; Donor 1)	NKT cell expansion (Table 1) ([5]; Donor 2)	NKT cell expansion (Table 1) ([5]; Donor 3)	NKT cell expansion (Table 1) ([5]; Donor 4)	protection from J558 tumor challenge [6, 8] [%]	protection from J558 tumor challenge [6, 9] [%]	tumor growth after single agent alone [6]	protective immunity to irradiated tumor injected i.v. (adjuvant comparison) [6]	further results
3-O-sulfo-alpha-galactosylceramide [Compound 24]	~900	~1200	significantly higher at all time points examined	~1000	~3000	~900	lacked the ability to release IFN-γ and IL12p70 into the serum	induced rapid production of IFNγ, IL-13 and IL-2	equally potent stimulators of the allo-MLR	no stimulatory activity in the syn-MLR	significant but comparable amounts of IL-12p40, IL-6 and TNF-α	efficiently expanded human NKT cells; also recorded: comparable or higher than expansion mediated by DCs loaded with αGalCer	3.19	5.95	1.51	4.95	100	100	grew progressively within 7-10 days	only adjuvant that could independently induce protective immunity	serum IFN-γ and IL-12p70, 24 vs. αGalCer ([1]; all doses tested, 15 hours after i.v. injection): at least 2.5 fold; production of IFN-γ by CD11c+DX5+ NK cells, vs. αGalCer [4, 7]: significantly higher; production of IL-12 by CD11c+DX5− DCs, vs. αGalCer [4, 7]: significantly higher; mice protected by direct vaccination ([6]; dying tumor cells with compound 24): 80-100%; maturation stimulus compared with ligation of CD40, TLR4 and TLR3 ([6]; irradiated tumor cells i.v.): superior relative to other DC stimuli
CCCCCCCCCCCCCCCCCCCCCCCCCC(=O)N[C@@H](CO[C@H]1O[C@H](CO)[C@H](O)[C@H](O)[C@H]1O)[C@H](O)[C@H](O)CCCCCCCCCCCCCC [α-GalCer, 2S,3S,4R-1-O(α-galactopyranosyl)-2(N-hexacosanoylamino)-1,3,4-octadecanetriol]	~50	~100	induced rapid increases in serum IFN-γ, IL-12p70, IL-4, TNF-α and IL-2 concentrations	~600	~1200	~200	lacked the ability to release IFN-γ and IL12p70 into the serum	induced rapid production of IFNγ, IL-13 and IL-2	equally potent stimulators of the allo-MLR	no stimulatory activity in the syn-MLR	significant but comparable amounts of IL-12p40, IL-6 and TNF-α	efficient inducers of NKT cell expansion in culture	3.55	2.65	1.53	3.55	100	100	grew progressively within 7-10 days	only adjuvant that could independently induce protective immunity	serum IFN-γ ([1]; 2 μg i.v., by 6 h): 6000 pg/mL; mice fully protected after transfer of CD11c+ DCs ([6]; 1.5×10^6 DCs from donors given dying J558− with α-Gal Cer, 10 of 17 mice): 58%; tumor immunity after depletion of CD4+ or CD8+ T cells ([6]; 8 weeks after vaccination with J558 and α-Gal Cer): significantly abrogated tumor immunity; dependence of vaccination on route ([6]; J558 and α-Gal Cer, i.v. vs s.c.): effective only when tumor cells were injected by the i.v. and not the s.c. route; specificity of protection (J558 vs Meth A challenge) ([6]; dying J558− and α-Gal Cer): protected mice against a challenge of J558 but not Meth A cells; protection against MHC class I positive or negative J558 challenge ([6]; dying MHC class I− J558 cells and α-Gal Cer): protected against the MHC class I^+ J558 cells but not to MHC class F J558 tumor cells; tumor immunity in Jα281−/− mice (lack NKT cells) ([6]; dying cells plus glycolipid): failed to develop immunity; duration of tumor immunity ([6]; single vaccination with irradiated J558 and α-Gal Cer, challenge 2 and 4 months later): long-lived tumor immunity; therapeutic effect ([6]; vaccinated 3 days after injection of live tumor cells): therapeutic response manifest when the tumor dose was 1×10^6 but not 5×10^6 cells; mice protected and tumor-free after J558 challenge ([6]; vaccination with irradiated J558− cells combined with α-Gal Cer i.v., 22 of 25 mice): 88%; protective immunity compared with anti-CD40, LPS and poly IC ([6]; with irradiated J558− cells): more efficient at inducing protective immunity than the other compounds tested; tumor growth after glycolipid alone ([6]; α-Gal Cer alone i.v., challenge 5×10^6 live J558 s.c.): grew progressively within 7-10 days
